Counter-ions that a name gives are not always drawn.
Test system: host-versus-graft reaction (HvGR) in the rat
Assay: Inhibitory activity against host-versus-graft reaction (HvGR) in the rat (popliteal lymph node weight)
Type: in vivo
Settings: po, 1 mg/kg orally once daily for 4 successive days, Lewis rats injected with WKAH/Hkm spleen cells, weight of popliteal lymph nodes vs control group, read-out: Inhibition Rate (%, 1 mg/kg of administration)
Text: Determination of Inhibitory Activities of the Compound Against Host-Versus-graft Reaction (HvGR) in the Rat
(1) Two strains of rats [Lewis rats (male, 6 weeks of age, Charles River Japan Inc.) and WKAH/Hkm rats (male, 7 weeks of age, Japan SLC Inc.)] were used. Five rats (host) per group were used.
Spleen cells were isolated from the spleens of WKAH/Hkm rats or Lewis rats and floated in RPMI1640 medium (Life Technologies Inc.) at a concentration of 1×10^8 cells/ml. A 0.1-ml aliquot of the medium containing the free-floating spleen cells (1×10^7 cells) of WKAH/Hkm rats or Lewis rats was then intradermally injected into the bilateral foot pads of the hindlimbs of both sides of Lewis rats.
(3) Administration of Test Compound
The test compound was suspended in 0.5% tragacantha solution. The suspended solution of a compound of the present invention (5 ml/kg of body weight of the rat) was orally administered to rats of the drug-treated group (the Lewis rats in which spleen cells of WKAH/Hkm rats were injected and the test compound was administered) once daily for 4 successive days starting on the day of the spleen cell injection. Furthermore, tragacantha solution (0.5%) instead of the test substance was orally administered to rats in the “same strain group” (Lewis rats injected with spleen cells of Lewis rats) and the control group (Lewis rats injected with spleen cells of WKAH/Hkm rats and not treated with the test compound).
(4) Determination of Inhibitory Activity Against HvGR
The average weight of the popliteal lymph nodes of the same strain rats was subtracted from the individual weights of the popliteal lymph nodes of individual rats (“weight of the popliteal lymph nodes after HvGR-induction”). The inhibitory activity of a compound was calculated from the “weight of the popliteal lymph nodes after HvGR induction” of individual rats in the drug-treated group versus the average “weight of the popliteal lymph nodes after HvGR induction” in the control group.

Row | SMILES | inhibition in vivo at 1 mg/kg [%]
1 | CCc1cc(CN2CC(C(=O)O)C2)sc1-c1noc(-c2ccc(Oc3cccc(F)c3)cc2)n1 [Example 17, 1-[(4-Ethyl-5-{5-[4-(3-fluorophenoxy)phenyl]-1,2,4-oxadiazol-3-yl}-2-thienyl)methyl]azetidine-3-carboxylic acid] | 65
2 | Cc1cc(-c2nc(-c3ccc(CN4CC(C(=O)O)C4)nc3)no2)ccc1CC(C)C [Example 28, 1-({5-[5-(4-Isobutyl-3-methylphenyl)-1,2,4-oxadiazol-3-yl]pyridin-2-yl}methyl)azetidine-3-carboxylic acid 1/2 oxalate] | 77.5
3 | CC[C@H](C)Oc1ccc(-c2nc(-c3ccc(CN4CC(C(=O)O)C4)cc3)no2)cc1 [Reference Compound 1, reference compound] | -15.5
4 | Cc1cc(-c2nc(-c3ccc(CN4CC(C(=O)O)C4)nc3C)no2)ccc1CC(C)C [Example 27, 1-({5-[5-(4-Isobutyl-3-methylphenyl)-1,2,4-oxadiazol-3-yl]-6-methylpyridin-2-yl}methyl)azetidine-3-carboxylic acid 1/2 oxalate] | 80.6
5 | O=C(O)C1CN(Cc2ccc(-c3noc(-c4ccc(OC5CCC5)cc4)n3)cc2)C1 [Reference Compound 2, reference compound] | -19
6 | CCc1cc(CN2CC(C(=O)O)C2)sc1-c1noc(-c2ccc(Oc3ccccc3)cc2)n1 [Example 13, 1-({4-Ethyl-5-[5-(4-phenoxyphenyl)-1,2,4-oxadiazol-3-yl]-2-thienyl}methyl)azetidine-3-carboxylic acid] | 61.3
7 | CCc1cc(CN2CC(C(=O)O)C2)sc1-c1noc(-c2ccc(Oc3ccccc3)c(F)c2)n1 [Example 14, 1-({4-Ethyl-5-[5-(3-fluoro-4-phenoxyphenyl)-1,2,4-oxadiazol-3-yl]-2-thienyl}methyl)azetidine-3-carboxylic acid] | 65.6
8 | CCc1cc(CN2CC(C(=O)O)C2)sc1-c1noc(-c2ccc(Oc3ccccc3F)cc2)n1 [Example 10, 1-[(4-Ethyl-5-{5-[4-(2-fluorophenoxy)phenyl]-1,2,4-oxadiazol-3-yl}-2-thienyl)methyl]azetidine-3-carboxylic acid 1/2 oxalate] | 61.8
9 | CCc1nc(CN2CC(C(=O)O)C2)ccc1-c1noc(-c2ccc(CC(C)C)c(C)c2)n1 [Example 29, 1-({6-Ethyl-5-[5-(4-isobutyl-3-methylphenyl)-1,2,4-oxadiazol-3-yl]pyridin-2-yl}methyl)azetidine-3-carboxylic acid] | 83.5
10 | Cc1cc(CN2CC(C(=O)O)C2)sc1-c1noc(-c2ccc(Oc3ccccc3)cc2)n1 [Example 12, 1-({4-Methyl-5-[5-(4-phenoxyphenyl)-1,2,4-oxadiazol-3-yl]-2-thienyl}methyl)azetidine-3-carboxylic acid] | 55.4
11 | Cc1cc(CN2CC(C(=O)O)C2)sc1-c1noc(-c2ccc(Oc3ccccc3)c(F)c2)n1 [Example 11, 1-({5-[5-(3-Fluoro-4-phenoxyphenyl)-1,2,4-oxadiazol-3-yl]-4-methyl-2-thienyl}methyl)azetidine-3-carboxylic acid] | 51.6
12 | CC(C)Cc1ccc(-c2nc(-c3ccc(CN4CC(C(=O)O)C4)nc3)no2)cc1Cl [Example 26, 1-({5-[5-(3-Chloro-4-isobutylphenyl)-1,2,4-oxadiazol-3-yl]pyridin-2-yl}methyl)azetidine-3-carboxylic acid] | 80
